Laboratory results as given in ChEMBL document CHEMBL4680110 (2018).
pIC50: −log10 of the molar value. Active and inactive are the calls of the source. Peptide text beside a SMILES is read from it.

Experiments:
Rattus norvegicus [1] = assay: Analgesic activity in Sprague-Dawley rat model of PNL injury-induced neuropathic pain assessed as pain threshold elevation percentage at 15 nmol/kg, IM administered as single dose measured after 2 to 2.5 hrs post dose; type: functional; conditions: time 2-2.5 hrs
GABA-B receptor = GABA-B receptor (Homo sapiens, UniProt O75899+Q9UBS5); assay: Activation of human GABAB1/GABAB2 expressed in HEK293 cells co-transfected with rat CaV2.2 channel assessed as reduction in CaV2.2-mediated peak-current amplitude in response to the depolarizing pulse by whole cell patch clamp assay; type: cell-based, HEK293T
Chain of GABA-B receptor (Q9UBS5 whole entry): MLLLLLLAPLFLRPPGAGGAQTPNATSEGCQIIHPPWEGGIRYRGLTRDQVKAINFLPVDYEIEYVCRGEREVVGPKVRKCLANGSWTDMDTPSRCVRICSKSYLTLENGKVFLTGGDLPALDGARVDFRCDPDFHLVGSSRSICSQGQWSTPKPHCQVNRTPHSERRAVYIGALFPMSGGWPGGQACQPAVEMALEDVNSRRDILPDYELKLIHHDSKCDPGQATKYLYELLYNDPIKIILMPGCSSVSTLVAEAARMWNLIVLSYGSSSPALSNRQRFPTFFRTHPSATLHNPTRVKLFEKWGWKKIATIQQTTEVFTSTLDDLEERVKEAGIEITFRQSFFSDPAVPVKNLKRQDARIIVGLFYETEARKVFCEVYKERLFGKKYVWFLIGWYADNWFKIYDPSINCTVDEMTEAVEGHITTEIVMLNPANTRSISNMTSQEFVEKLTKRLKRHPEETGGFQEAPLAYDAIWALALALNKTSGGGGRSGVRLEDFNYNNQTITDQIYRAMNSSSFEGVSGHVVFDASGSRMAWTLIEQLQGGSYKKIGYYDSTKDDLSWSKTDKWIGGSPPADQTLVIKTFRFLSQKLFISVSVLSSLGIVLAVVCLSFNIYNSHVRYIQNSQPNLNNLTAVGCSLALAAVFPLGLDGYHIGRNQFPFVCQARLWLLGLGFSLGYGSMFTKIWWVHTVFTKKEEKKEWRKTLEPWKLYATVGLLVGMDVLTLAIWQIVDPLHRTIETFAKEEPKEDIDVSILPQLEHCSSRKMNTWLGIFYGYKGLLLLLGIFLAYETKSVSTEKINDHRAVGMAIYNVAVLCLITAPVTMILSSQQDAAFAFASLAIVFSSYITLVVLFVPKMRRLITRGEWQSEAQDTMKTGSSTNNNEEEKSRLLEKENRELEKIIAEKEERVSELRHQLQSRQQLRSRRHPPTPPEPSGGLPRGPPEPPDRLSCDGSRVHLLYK
Chain of GABA-B receptor (O75899 whole entry): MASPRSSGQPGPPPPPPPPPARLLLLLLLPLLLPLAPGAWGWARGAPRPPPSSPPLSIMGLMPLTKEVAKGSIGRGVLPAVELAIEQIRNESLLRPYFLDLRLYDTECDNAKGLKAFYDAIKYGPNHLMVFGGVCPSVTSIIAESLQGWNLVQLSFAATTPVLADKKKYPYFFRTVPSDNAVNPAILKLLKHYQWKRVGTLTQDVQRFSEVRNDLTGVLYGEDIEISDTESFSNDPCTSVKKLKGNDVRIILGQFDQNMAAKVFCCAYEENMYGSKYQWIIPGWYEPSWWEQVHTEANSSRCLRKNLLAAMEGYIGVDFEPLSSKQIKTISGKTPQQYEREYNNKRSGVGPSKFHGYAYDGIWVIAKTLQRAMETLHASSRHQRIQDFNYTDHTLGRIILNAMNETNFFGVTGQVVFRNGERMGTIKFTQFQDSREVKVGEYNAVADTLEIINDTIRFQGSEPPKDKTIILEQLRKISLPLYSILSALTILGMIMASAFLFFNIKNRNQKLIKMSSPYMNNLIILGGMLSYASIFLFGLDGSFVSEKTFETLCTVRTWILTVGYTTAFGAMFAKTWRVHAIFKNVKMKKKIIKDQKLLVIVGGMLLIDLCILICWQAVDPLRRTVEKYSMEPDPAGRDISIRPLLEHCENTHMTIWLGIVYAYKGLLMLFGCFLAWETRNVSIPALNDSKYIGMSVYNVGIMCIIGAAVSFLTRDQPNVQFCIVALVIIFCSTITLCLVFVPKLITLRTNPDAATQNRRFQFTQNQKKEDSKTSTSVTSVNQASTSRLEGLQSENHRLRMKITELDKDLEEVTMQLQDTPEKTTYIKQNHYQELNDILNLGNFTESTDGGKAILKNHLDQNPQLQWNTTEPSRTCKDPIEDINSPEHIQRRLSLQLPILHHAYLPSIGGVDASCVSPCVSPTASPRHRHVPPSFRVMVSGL

[2] = target: Nicotinic acetylcholine receptor alpha9/alpha10 (Rattus norvegicus, UniProt P43144+Q9JLB5); assay: Inhibition of rat alpha9alpha10 nAChR expressed in Xenopus laevis oocytes assessed as inhibition of Ach-induced response at -80 mV holding potential preincubated for 5 mins followed by Ach stimulation by two electrode voltage-clamp assay; type: cell-based, Oocyte
Chain of Nicotinic acetylcholine receptor alpha9/alpha10 (P43144 whole entry): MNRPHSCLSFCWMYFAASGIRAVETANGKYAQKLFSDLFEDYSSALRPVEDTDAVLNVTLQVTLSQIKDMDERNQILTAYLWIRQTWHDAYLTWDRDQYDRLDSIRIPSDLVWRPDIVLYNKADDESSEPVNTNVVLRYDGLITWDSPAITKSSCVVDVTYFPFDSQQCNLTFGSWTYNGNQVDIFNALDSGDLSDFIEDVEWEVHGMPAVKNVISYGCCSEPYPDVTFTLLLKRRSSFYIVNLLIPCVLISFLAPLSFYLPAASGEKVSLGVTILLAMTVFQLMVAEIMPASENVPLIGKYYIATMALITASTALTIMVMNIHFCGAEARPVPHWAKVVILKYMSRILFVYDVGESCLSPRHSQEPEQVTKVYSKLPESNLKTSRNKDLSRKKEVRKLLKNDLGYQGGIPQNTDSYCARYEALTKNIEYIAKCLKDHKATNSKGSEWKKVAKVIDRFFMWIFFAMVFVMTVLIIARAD
Chain of Nicotinic acetylcholine receptor alpha9/alpha10 (Q9JLB5 whole entry): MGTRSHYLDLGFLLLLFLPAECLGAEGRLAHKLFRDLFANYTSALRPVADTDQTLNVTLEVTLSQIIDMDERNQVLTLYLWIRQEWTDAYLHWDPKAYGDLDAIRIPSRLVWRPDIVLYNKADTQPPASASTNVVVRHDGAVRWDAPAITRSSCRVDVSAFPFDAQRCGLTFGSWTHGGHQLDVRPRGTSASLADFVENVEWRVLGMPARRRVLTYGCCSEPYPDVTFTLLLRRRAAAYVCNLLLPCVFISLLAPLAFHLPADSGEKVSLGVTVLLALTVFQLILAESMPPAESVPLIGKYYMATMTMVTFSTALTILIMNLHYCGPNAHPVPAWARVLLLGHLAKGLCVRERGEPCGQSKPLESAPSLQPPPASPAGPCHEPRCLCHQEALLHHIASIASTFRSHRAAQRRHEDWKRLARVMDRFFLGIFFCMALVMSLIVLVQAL

[3] = Selectivity index, ratio of IC50 for inhibition of rat alpha9alpha10 nAChR expressed in Xenopus laevis oocytes to IC50 for activation of human GABAB1/GABAB2 expressed in HEK293 cells co-transfected with rat CaV2.2 channel assessed as reduction in CaV2.2-mediated peak Ba2+ current amplitude; type: cell-based
[4] = Selectivity index, ratio of IC50 for inhibition of human alpha9alpha10 nAChR expressed in Xenopus laevis oocytes to IC50 for activation of human GABAB1/GABAB2 expressed in HEK293 cells co-transfected with rat CaV2.2 channel assessed as reduction in CaV2.2-mediated peak-current amplitude; type: cell-based
[5] = target: Neuronal acetylcholine receptor; alpha2/beta4 (Rattus norvegicus) (UniProt P12389+P12392); assay: Inhibition of rat alpha2beta4 nAChR expressed in Xenopus laevis oocytes assessed as inhibition of Ach-induced response at 10 uM at -80 mV holding potential preincubated for 5 mins followed by Ach stimulation by two electrode voltage-clamp assay relative to control; type: cell-based; conditions: Oocyte
Rattus norvegicus [6] = assay: Analgesic activity in Sprague-Dawley rat model of PNL injury-induced neuropathic pain assessed as pain threshold elevation percentage at 0.3 nmol/kg, IM administered as single dose measured after 2 to 2.5 hrs post dose; type: functional; conditions: time 2-2.5 hrs
[7] = target: Neuronal acetylcholine receptor subunit alpha-7 (Rattus norvegicus) (UniProt Q05941); assay: Inhibition of rat alpha7 nAChR expressed in Xenopus laevis oocytes assessed as inhibition of Ach-induced response at 10 uM at -80 mV holding potential preincubated for 5 mins followed by Ach stimulation by two electrode voltage-clamp assay relative to control; type: cell-based; conditions: Oocyte
Chain of Neuronal acetylcholine receptor subunit alpha-7 (Rattus norvegicus) (Q05941 whole entry): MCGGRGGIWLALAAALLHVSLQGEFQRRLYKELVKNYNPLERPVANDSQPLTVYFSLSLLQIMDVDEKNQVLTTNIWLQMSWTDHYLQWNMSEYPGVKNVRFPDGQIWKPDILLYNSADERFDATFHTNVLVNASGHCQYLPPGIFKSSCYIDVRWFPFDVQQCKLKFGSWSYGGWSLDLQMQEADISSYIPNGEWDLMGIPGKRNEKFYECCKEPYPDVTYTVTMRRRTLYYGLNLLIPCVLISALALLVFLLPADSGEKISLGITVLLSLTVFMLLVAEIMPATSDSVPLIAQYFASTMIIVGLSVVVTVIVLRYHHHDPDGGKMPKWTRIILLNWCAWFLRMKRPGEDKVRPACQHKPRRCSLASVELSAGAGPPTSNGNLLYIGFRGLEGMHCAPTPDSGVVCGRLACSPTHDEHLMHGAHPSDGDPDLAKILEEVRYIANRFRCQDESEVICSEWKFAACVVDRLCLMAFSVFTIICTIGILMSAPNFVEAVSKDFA

[8] = target: Neuronal acetylcholine receptor; alpha9/alpha10 (Homo sapiens, UniProt Q9GZZ6+Q9UGM1); assay: Inhibition of human alpha9alpha10 nAChR expressed in Xenopus laevis oocytes assessed as inhibition of Ach-induced response at -80 mV holding potential preincubated for 5 mins followed by Ach stimulation by two electrode voltage-clamp assay; type: cell-based, Oocyte
Chain of Neuronal acetylcholine receptor; alpha9/alpha10 (Q9UGM1 whole entry): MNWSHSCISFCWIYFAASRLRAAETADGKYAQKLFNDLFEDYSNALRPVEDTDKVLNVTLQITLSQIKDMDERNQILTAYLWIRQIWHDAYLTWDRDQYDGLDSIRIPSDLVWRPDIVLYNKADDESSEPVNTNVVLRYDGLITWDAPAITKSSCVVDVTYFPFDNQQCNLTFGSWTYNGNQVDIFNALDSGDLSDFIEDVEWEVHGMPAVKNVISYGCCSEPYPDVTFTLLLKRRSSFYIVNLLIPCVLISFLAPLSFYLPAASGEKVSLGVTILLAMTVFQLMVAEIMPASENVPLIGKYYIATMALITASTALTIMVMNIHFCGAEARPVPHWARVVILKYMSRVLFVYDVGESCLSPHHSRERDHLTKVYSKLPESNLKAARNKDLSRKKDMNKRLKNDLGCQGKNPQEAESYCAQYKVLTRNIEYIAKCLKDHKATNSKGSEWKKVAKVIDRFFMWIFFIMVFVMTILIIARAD
Chain of Neuronal acetylcholine receptor; alpha9/alpha10 (Q9GZZ6 whole entry): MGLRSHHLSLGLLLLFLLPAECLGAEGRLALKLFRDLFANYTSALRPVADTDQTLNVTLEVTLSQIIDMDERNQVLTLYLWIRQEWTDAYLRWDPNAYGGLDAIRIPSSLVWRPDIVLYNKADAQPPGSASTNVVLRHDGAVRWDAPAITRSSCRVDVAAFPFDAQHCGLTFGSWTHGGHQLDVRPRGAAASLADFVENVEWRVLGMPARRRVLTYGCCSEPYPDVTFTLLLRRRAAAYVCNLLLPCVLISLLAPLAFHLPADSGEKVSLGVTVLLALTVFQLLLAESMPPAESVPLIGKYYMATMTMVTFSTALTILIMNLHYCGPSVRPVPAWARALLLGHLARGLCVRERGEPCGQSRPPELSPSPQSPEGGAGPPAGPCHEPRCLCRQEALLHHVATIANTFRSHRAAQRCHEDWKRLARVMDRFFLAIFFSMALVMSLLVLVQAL

[9] = target: Neuronal acetylcholine receptor; alpha4/beta2 (Rattus norvegicus) (UniProt P09483+P12390); assay: Inhibition of rat alpha4beta2 nAChR expressed in Xenopus laevis oocytes assessed as inhibition of Ach-induced response at 10 uM at -80 mV holding potential preincubated for 5 mins followed by Ach stimulation by two electrode voltage-clamp assay relative to control; type: cell-based; conditions: Oocyte
[10] = target: Neuronal acetylcholine receptor; alpha2/beta2 (Rattus norvegicus) (UniProt P12389+P12390); assay: Inhibition of rat alpha2beta2 nAChR expressed in Xenopus laevis oocytes assessed as inhibition of Ach-induced response at 10 uM at -80 mV holding potential preincubated for 5 mins followed by Ach stimulation by two electrode voltage-clamp assay relative to control; type: cell-based; conditions: Oocyte
[11] = target: Neuronal acetylcholine receptor; alpha3/beta2 (Rattus norvegicus) (UniProt P04757+P12390); assay: Inhibition of rat alpha3beta2 nAChR expressed in Xenopus laevis oocytes assessed as inhibition of Ach-induced response at 10 uM at -80 mV holding potential preincubated for 5 mins followed by Ach stimulation by two electrode voltage-clamp assay relative to control; type: cell-based; conditions: Oocyte
Neuron = assay: Inhibition of TTX-sensitive sodium channel in Sprague-Dawley rat DRG neuron at 10 uM at -10 mV holding potential by whole cell patch clamp technique; type: tissue-based
[12] = target: Neuronal acetylcholine receptor; alpha3/beta4 (Rattus norvegicus) (UniProt P04757+P12392); assay: Inhibition of rat alpha3beta4 nAChR expressed in Xenopus laevis oocytes assessed as inhibition of Ach-induced response at 10 uM at -80 mV holding potential preincubated for 5 mins followed by Ach stimulation by two electrode voltage-clamp assay relative to control; type: cell-based; conditions: Oocyte
Rattus norvegicus [13] = assay: Analgesic activity in Sprague-Dawley rat model of PNL injury-induced neuropathic pain assessed as pain threshold elevation percentage at 0.3 to 15 nmol/kg, IM administered as single dose measured after 2 to 2.5 hrs post dose; type: functional, organism-based; conditions: dose 0.3-15 nmol/kg, time 2-2.5 hrs
[14] = target: T1, GABA-B receptor (Homo sapiens) (UniProt Q9UBS5+O75899); assay: Activation of human GABAB1/GABAB2 expressed in HEK293 cells co-transfected with rat CaV2.2 channel assessed as reduction in CaV2.2-mediated Ba2+ peak-current amplitude in response to depolarizing pulse in presence of 1 uM GABAB receptor antagonist CGP55845 by whole cell patch clamp assay; type: cell-based; conditions: HEK293T, time 6.0 hrs
Rattus norvegicus [15] = species: Rattus norvegicus; assay: Inhibition of TTX-resistant sodium channel in Sprague-Dawley rat DRG neuron at 10 uM at 10 mV holding potential by whole cell patch clamp technique
Rattus norvegicus [16] = assay: Analgesic activity in Sprague-Dawley rat model of PNL injury-induced neuropathic pain assessed as pain threshold elevation percentage at 1.5 nmol/kg, IM administered as single dose measured after 2 to 2.5 hrs post dose; type: functional; conditions: time 2-2.5 hrs
[17] = target: T1, GABA-B receptor (Homo sapiens); assay: Activation of human GABAB1/GABAB2 expressed in HEK293 cells co-transfected with rat CaV2.2 channel assessed as reduction in CaV2.2-mediated peak-current amplitude in response to depolarizing pulse at 1 nM by whole cell patch clamp assay relative to control; type: cell-based; conditions: HEK293T
Rattus norvegicus [18] = assay: Analgesic activity in Sprague-Dawley rat model of chronic constriction injury-induced neuropathic pain assessed as increase in pain threshold elevation percentage at 0.3 to 15 nmol/kg, IM administered as single dose measured after 2 to 2.5 hrs post dose; type: functional, organism-based; conditions: dose 0.3-15 nmol/kg, time 2-2.5 hrs

Structure (SMILES)	Activity (Rattus norvegicus [1]) [%]	pIC50 (GABA-B receptor)	pIC50 [2]	Ratio IC50 [3]	Ratio IC50 [4]	pIC50 [8]	further results
CC[C@H](C)[C@H](NC(=O)[C@H](CCC(=O)O)NC(=O)[C@@H]1CCCN1C(=O)[C@H](Cc1cnc[nH]1)NC(=O)[C@H](CCCNC(=N)N)NC(=O)[C@H](Cc1ccc(O)cc1)NC(=O)[C@H](CCCNC(=N)N)NC(=O)[C@H](CS)NC(=O)[C@H](CCCNC(=N)N)NC(=O)[C@@H]1CCCN1C(=O)[C@H](CC(=O)O)NC(=O)[C@H](CO)NC(=O)[C@H](CS)NC(=O)[C@H](CS)NC(=O)CN)C(=O)N[C@@H](CS)C(N)=O (H-GCCSDPRCRYRHPEIC-NH2)	35.3	< 6.00	–	–	–	–	–
CC[C@H](C)[C@H](NC(=O)[C@H](CCC(=O)O)NC(=O)[C@@H]1CCCN1C(=O)[C@H](Cc1cnc[nH]1)NC(=O)[C@H](CC(=O)O)NC(=O)[C@H](Cc1ccc(O)cc1)NC(=O)[C@H](CCCNC(=N)N)NC(=O)[C@H](CS)NC(=O)[C@H](CCCNC(=N)N)NC(=O)[C@@H]1CCCN1C(=O)[C@H](CC(=O)O)NC(=O)[C@H](CO)NC(=O)[C@H](CS)NC(=O)[C@H](CS)NC(=O)CNC(C)=O)C(=O)N[C@@H](CS)C(N)=O (Ac-GCCSDPRCRYDHPEIC-NH2)	24.8	7.72	5.62	128	–	–	–
CC[C@H](C)[C@H](NC(=O)[C@H](CCC(=O)O)NC(=O)[C@@H]1CCCN1C(=O)[C@H](Cc1cnc[nH]1)NC(=O)[C@H](CC(=O)O)NC(=O)[C@H](Cc1ccc(O)cc1)NC(=O)[C@H](CCCNC(=N)N)NC(=O)[C@H](CS)NC(=O)[C@H](CCCNC(=N)N)NC(=O)[C@@H]1CCCN1C(=O)[C@H](CC(=O)O)NC(=O)[C@H](CO)NC(=O)[C@H](CS)NC(=O)[C@H](CS)NC(=O)CN)C(=O)N[C@@H](CS)C(N)=O (H-GCCSDPRCRYDHPEIC-NH2)	85	8.31	5.31	1000	74.1	6.44	inhibition [5]: > 50%; Activity (Rattus norvegicus [6]): 16.7%; inhibition [7]: > 50%; inhibition [9]: > 50%; inhibition [10]: > 50%; inhibition [11]: > 50%; inhibition (Neuron): inactive; inhibition [12]: > 50%; Activity (Rattus norvegicus [13]): Dose-dependent effect; Activity [14]: inactive; inhibition (Rattus norvegicus [15]): inactive; Activity (Rattus norvegicus [16]): 47.2%; inhibition [17]: 19.6%; Activity (Rattus norvegicus [18]): Active
CC[C@H](C)[C@H](NC(=O)[C@H](CCC(=O)O)NC(=O)[C@@H]1CCCN1C(=O)[C@H](Cc1cnc[nH]1)NC(=O)[C@H](CO)NC(=O)[C@H](Cc1ccc(O)cc1)NC(=O)[C@H](CCCNC(=N)N)NC(=O)[C@H](CS)NC(=O)[C@H](CCCNC(=N)N)NC(=O)[C@@H]1CCCN1C(=O)[C@H](CC(=O)O)NC(=O)[C@H](CO)NC(=O)[C@H](CS)NC(=O)[C@H](CS)NC(=O)CN)C(=O)N[C@@H](CS)C(N)=O (H-GCCSDPRCRYSHPEIC-NH2)	9	7.73	–	–	–	–	–
CC[C@H](C)[C@H](NC(=O)[C@H](CCC(=O)O)NC(=O)[C@@H]1CCCN1C(=O)[C@H](Cc1cnc[nH]1)NC(=O)[C@H](CC(=O)O)NC(=O)[C@H](Cc1ccc(O)cc1)NC(=O)[C@H](CC(N)=O)NC(=O)[C@H](CS)NC(=O)[C@H](CCCNC(=N)N)NC(=O)[C@@H]1CCCN1C(=O)[C@H](CC(=O)O)NC(=O)[C@H](CO)NC(=O)[C@H](CS)NC(=O)[C@H](CS)NC(=O)CNC(=O)c1ccccc1)C(=O)N[C@@H](CS)C(N)=O	–	8.92	–	–	> 10000	4.90	–
